# Laboratory results published in patent US7157555B1, “Exendin agonist compounds” (Amylin Pharmaceuticals, Inc., priority 1997, dated 2007).
# Test system: gastric emptying in rats
# Test: Gastric emptying in rats (phenol red gel gavage)
# Type: in vivo, Male Harlan Sprague Dawley (HSD) rats
# Description: This experiment followed a modification of the method of Scarpignato, et al., Arch.
# Male Harlan Sprague Dawley (HSD) rats were used.
# The determination of gastric emptying by the method described below was performed after a fast of −20 hours to ensure that the stomach contained no chyme that would interfere with spectrophotometric absorbance measurements.
# Twenty minutes after gavage, rats were anesthetized using 5% halothane, the stomach exposed and clamped at the pyloric and lower esophageal sphincters using artery forceps, removed and opened into an alkaline solution which was made up to a fixed volume. Stomach content was derived from the intensity of the phenol red in the alkaline solution, measured by absorbance at a wavelength of 560 nm. In separate experiments on 7 rats, the stomach and small intestine were both excised and opened into an alkaline solution. […] To account for a maximal dye recovery of less than 100%, percent of stomach contents remaining after 20 min were expressed as a fraction of the gastric contents recovered from control rats sacrificed immediately after gavage in the same experiment. Percent gastric contents remaining=(absorbance at 20 min)/(absorbance at 0 mm)×100.
# In baseline studies, with no drug treatment, gastric emptying over 20 min was determined.
substance,measurement,setting,value
exendin-4 acid: exendin agonist; synthesized according to standard peptide synthesis methods,EC50 (inhibition of gastric emptying),"conscious rats, gastric contents remaining 20 min after gavage, dose-response",0.12 µg
same,Inhibition of gastric emptying (in words),"rats, FIG. 6 and Table II",potent inhibitors of gastric emptying
